Experimental findings from ChEMBL document CHEMBL1158551, “Click reaction synthesis of carbohydrate derivatives from ristocetin aglycon with antibacterial and antiviral activity” (Bioorg Med Chem Lett, 2010) are described below.

For assay [1], the system named is Influenza A virus. As to the kind of experiment: Antiviral activity against influenza A virus H1N1 assessed as inhibition of viral induced cytopathic effect. The format is functional, organism-based. (Cytopathic effects are the visible damage that an infection or toxin causes in cultured cells.)
For assay [2], the system named is Influenza A virus. In words: Antiviral activity against influenza A virus H1N1 assessed as cell viability by cell based MTS assay. The format is functional, organism-based. On the technique in general: Tetrazolium assays rely on reduction of a dye to a coloured formazan, in cell work by metabolically active cells.
Assay [3] concerns Influenza A virus. As to the kind of experiment: Antiviral activity against Influenza A virus H3N2 assessed as inhibition of viral induced cytopathic effect. The format is functional, organism-based.
For assay [4], the system named is Influenza A virus. In words: Antiviral activity against Influenza A virus H3N2 assessed as cell viability by cell based MTS assay. The format is functional, organism-based.
Assay [5] concerns Influenza B virus. In words: Antiviral activity against influenza B virus assessed as inhibition of viral induced cytopathic effect. It is filed as functional, organism-based.
For assay [6], the system named is Influenza B virus. In words: Antiviral activity against influenza B virus assessed as cell viability by cell based MTS assay. The format is functional, organism-based.
A further assay concerns Bacillus subtilis. In words: Antibacterial activity against Bacillus subtilis ATCC 6633 by broth microdilution method. The format is functional. (Dilution methods test growth across graded concentrations, often in twofold steps.)
Assay [7] relates to Staphylococcus aureus. In words: Antibacterial activity against methicillin-[…] Staphylococcus aureus ATCC 33591 by broth microdilution method. It is filed as functional.
Assay [8] deals with Staphylococcus aureus. In words: Antibacterial activity against methicillin-[…] Staphylococcus aureus ATCC 29213 by broth microdilution method. It is filed as functional.
Assay [9] deals with Staphylococcus epidermidis. In words: Antibacterial activity against biofilm positive Staphylococcus epidermidis ATCC 35984. It is filed as functional.
The subject of assay [10] is Staphylococcus epidermidis. In words: Antibacterial activity against Staphylococcus epidermidis by broth microdilution method. The format is functional.
In assay [11] the test system is Enterococcus faecalis. As to the kind of experiment: Antibacterial activity against vancomycin and teicoplanin-sensitive Enterococcus faecalis ATCC 29212 by broth microdilution method. It is filed as functional.
In assay [12] the test system is Enterococcus faecalis. As to the kind of experiment: Antibacterial activity against vancomycin-resistant and teicoplanin-sensitive Enterococcus faecalis ATCC 5129 expressing VanB gene by broth microdilution method. The format is functional.
In assay [13] the test system is Enterococcus faecalis. In words: Antibacterial activity against vancomycin and teicoplanin-resistant Enterococcus faecalis 15376 expressing VanA gene by broth microdilution method. It is filed as functional.

Molecules are shown by their SMILES. Converted amounts (≈) assume the structure as drawn.

Consider `CC(N)C12CC3CC(CC(C3)C1)C2` (configuration not stated) [RIMANTADINE], for which the EC50 in the assay with Influenza A virus [1] was 224 µM; in the assay on Influenza A virus [2] it was 283 µM; in the assay on Influenza A virus [3] it was 4 µM; in the assay with Influenza A virus [4], 5.6 µM; in the assay with Influenza B virus [5] it was over 500 µM; with Influenza B virus [6], over 500 µM.
`COC(=O)[C@@H]1NC(=O)[C@H]2NC(=O)[C@H](NC(=O)[C@@H]3NC(=O)[C@H]4NC(=O)[C@H](NC(=O)[C@H](n5cc(CO[C@H]6O[C@H](COC(C)=O)[C@@H](OC(C)=O)[C@H](OC(C)=O)[C@H]6NC(C)=O)nn5)c5ccc(O)c(c5)Oc5cc4cc(O)c5C)[C@H](O)c4ccc(cc4)Oc4cc3cc(c4O)Oc3ccc(cc3)[C@H]2O)c2ccc(O)c(c2)-c2c(O)cc(O)cc21`: the MBC is 8 µg/mL (≈ 5.05 µM) with Bacillus subtilis; 64 µg/mL (≈ 40.4 µM) with Staphylococcus aureus [7]; 256 µg/mL (≈ 161 µM) against Staphylococcus aureus [8]; 8 µg/mL (≈ 5.05 µM) in assay [9]; 4 µg/mL (≈ 2.52 µM) in assay [10]; 256 µg/mL (≈ 161 µM) with Enterococcus faecalis [11]. Further, the MBC in the assay on Enterococcus faecalis [12] and in the assay with Enterococcus faecalis [13] was 256 µg/mL (≈ 161 µM) in each case. In addition, the MIC was 2 µg/mL (≈ 1.26 µM) in the assay with Bacillus subtilis; 1 µg/mL (≈ 0.631 µM) against Staphylococcus aureus [7]; 0.5 µg/mL (≈ 0.315 µM) against Staphylococcus aureus [8]; 8 µg/mL (≈ 5.05 µM) in assay [9]; 4 µg/mL (≈ 2.52 µM) in assay [10]; 4 µg/mL (≈ 2.52 µM) against Enterococcus faecalis [11]. In addition, the MIC with Enterococcus faecalis [12] is 4 µg/mL (≈ 2.52 µM); in the assay on Enterococcus faecalis [13] it was 2 µg/mL (≈ 1.26 µM). For the same molecule, the EC50 in the assay with Influenza A virus [1] was 8 µM; in the assay with Influenza A virus [2], 5.8 µM; with Influenza A virus [3] it was over 100 µM; in the assay on Influenza A virus [4], over 100 µM; in the assay on Influenza B virus [5], over 100 µM; in the assay on Influenza B virus [6], over 100 µM.
On to `Cc1c(O)cc2cc1Oc1cc(ccc1O)[C@@H](N)C(=O)N[C@H]1C(=O)N[C@@H]2C(=O)N[C@H]2C(=O)N[C@H]3C(=O)N[C@H](C(=O)N[C@@H](C(=O)O)c4cc(O)cc(O[C@H]5O[C@H](CO)[C@@H](O)[C@H](O)[C@@H]5O)c4-c4cc3ccc4O)[C@H](O[C@H]3C[C@@H](N)[C@@H](O)[C@H](C)O3)c3ccc(cc3)Oc3cc2cc(c3O[C@H]2O[C@@H](CO[C@H]3O[C@H](C)[C@@H](O)[C@H](O)[C@@H]3O)[C@H](O)[C@@H](O)[C@@H]2O[C@H]2O[C@H](CO)[C@@H](O)[C@H](O)[C@@H]2O[C@H]2O[C@H](CO)[C@@H](O)[C@@H]2O)Oc2ccc(cc2)[C@H]1O` [RISTOCETIN], for which the MBC in the assay with Bacillus subtilis was 4 µg/mL (≈ 1.95 µM); against Staphylococcus aureus [7], 64 µg/mL (≈ 31.2 µM); in the assay with Staphylococcus aureus [8], 64 µg/mL (≈ 31.2 µM); in assay [9], 64 µg/mL (≈ 31.2 µM); in assay [10] it was 16 µg/mL (≈ 7.79 µM); in the assay with Enterococcus faecalis [11], 256 µg/mL (≈ 125 µM). Moreover, the MBC in the assay on Enterococcus faecalis [12] and with Enterococcus faecalis [13] was 256 µg/mL (≈ 125 µM) in each case. Besides, the MIC is 2 µg/mL (≈ 0.974 µM) against Bacillus subtilis; 16 µg/mL (≈ 7.79 µM) in the assay on Staphylococcus aureus [7]; 16 µg/mL (≈ 7.79 µM) against Staphylococcus aureus [8]; 32 µg/mL (≈ 15.6 µM) in assay [9]; 16 µg/mL (≈ 7.79 µM) in assay [10]; 4 µg/mL (≈ 1.95 µM) in the assay with Enterococcus faecalis [11]. The MIC against Enterococcus faecalis [12] and in the assay on Enterococcus faecalis [13] was 128 µg/mL (≈ 62.3 µM) in each case.
For the molecule `COC(=O)[C@H]1NC(=O)[C@H]2NC(=O)[C@H](NC(=O)[C@@H]3NC(=O)[C@H]4NC(=O)[C@H](NC(=O)[C@H](n5cc(CO[C@@H]6O[C@@H](C)[C@H](O)[C@@H](O)[C@H]6O)nn5)c5ccc(O)c(c5)Oc5cc4cc(O)c5C)[C@H](O)c4ccc(cc4)Oc4cc3cc(c4O)Oc3ccc(cc3)[C@H]2O)c2ccc(O)c(c2)-c2c(O)cc(O)cc21`, the MBC came to 16 µg/mL (≈ 11.4 µM) with Bacillus subtilis; 16 µg/mL (≈ 11.4 µM) against Staphylococcus aureus [7]; 8 µg/mL (≈ 5.7 µM) in the assay on Staphylococcus aureus [8]; 16 µg/mL (≈ 11.4 µM) in [9]; 32 µg/mL (≈ 22.8 µM) in [10]; 256 µg/mL (≈ 183 µM) against Enterococcus faecalis [11]. Besides, the MBC was found to be 128 µg/mL (≈ 91.3 µM) in the assay with Enterococcus faecalis [12] and 256 µg/mL (≈ 183 µM) in the assay with Enterococcus faecalis [13]. Besides, the MIC was 16 µg/mL (≈ 11.4 µM) against Bacillus subtilis; 8 µg/mL (≈ 5.7 µM) in the assay on Staphylococcus aureus [7]; 8 µg/mL (≈ 5.7 µM) with Staphylococcus aureus [8]; 16 µg/mL (≈ 11.4 µM) in assay [9]; 16 µg/mL (≈ 11.4 µM) in assay [10]; 32 µg/mL (≈ 22.8 µM) against Enterococcus faecalis [11]. In addition, the values for the MIC against Enterococcus faecalis [12] and with Enterococcus faecalis [13] were 64 µg/mL (≈ 45.6 µM) and 16 µg/mL (≈ 11.4 µM), respectively.
With `CCOC(=O)C1=C[C@@H](OC(CC)CC)[C@H](NC(C)=O)[C@@H](N)C1` [OSELTAMIVIR], the EC50 came to 12 µM in the assay with Influenza A virus [1]; 11 µM in the assay on Influenza A virus [2]; 32 µM with Influenza A virus [3]; 38 µM in the assay with Influenza A virus [4]; 23 µM with Influenza B virus [5]; 27 µM in the assay with Influenza B virus [6].
For the molecule `COC(=O)[C@@H]1NC(=O)[C@H]2NC(=O)[C@H](NC(=O)[C@@H]3NC(=O)[C@H]4NC(=O)[C@H](NC(=O)[C@H](n5cc(CO[C@H]6O[C@H](COC(C)=O)[C@@H](OC(C)=O)[C@H](OC(C)=O)[C@H]6OC(C)=O)nn5)c5ccc(O)c(c5)Oc5cc4cc(O)c5C)[C@H](O)c4ccc(cc4)Oc4cc3cc(c4O)Oc3ccc(cc3)[C@H]2O)c2ccc(O)c(c2)-c2c(O)cc(O)cc21`, the MBC in the assay with Bacillus subtilis was determined as 16 µg/mL (≈ 10.1 µM); in the assay on Staphylococcus aureus [7], 8 µg/mL (≈ 5.04 µM); in the assay with Staphylococcus aureus [8] it was 8 µg/mL (≈ 5.04 µM); in [9], 16 µg/mL (≈ 10.1 µM); in [10], 16 µg/mL (≈ 10.1 µM); in the assay on Enterococcus faecalis [11], 256 µg/mL (≈ 161 µM). Besides, the MBC with Enterococcus faecalis [12] and against Enterococcus faecalis [13] was 256 µg/mL (≈ 161 µM) each time. The MIC came to 8 µg/mL (≈ 5.04 µM) in the assay with Bacillus subtilis; 4 µg/mL (≈ 2.52 µM) against Staphylococcus aureus [7]; 4 µg/mL (≈ 2.52 µM) in the assay with Staphylococcus aureus [8]; 8 µg/mL (≈ 5.04 µM) in [9]; 16 µg/mL (≈ 10.1 µM) in [10]; 8 µg/mL (≈ 5.04 µM) with Enterococcus faecalis [11]. For the same molecule, the MIC against Enterococcus faecalis [12] was 16 µg/mL (≈ 10.1 µM); against Enterococcus faecalis [13], 8 µg/mL (≈ 5.04 µM). Also, the concentration for a half-maximal effect (EC50) in the assay with Influenza A virus [1] was 9.5 µM; in the assay with Influenza A virus [2], 8.2 µM; in the assay with Influenza A virus [3] it was over 100 µM; in the assay on Influenza A virus [4] it was over 100 µM; in the assay with Influenza B virus [5], over 100 µM; in the assay on Influenza B virus [6], over 100 µM.
For `NC(=O)c1ncn([C@@H]2O[C@H](CO)[C@@H](O)[C@H]2O)n1` [RIBAVIRIN], the EC50 worked out at 11 µM in the assay on Influenza A virus [2], 4 µM in the assay on Influenza B virus [5] and 4.7 µM in the assay with Influenza B virus [6].
With `NC12CC3CC(CC(C3)C1)C2` [AMANTADINE], the EC50 is 20 µM in the assay on Influenza A virus [1]; 19 µM in the assay with Influenza A virus [2]; 7 µM with Influenza A virus [3]; 9.2 µM in the assay with Influenza A virus [4]; over 500 µM in the assay on Influenza B virus [5]; over 500 µM in the assay with Influenza B virus [6].
With `COC(=O)[C@H]1NC(=O)[C@H]2NC(=O)[C@H](NC(=O)[C@@H]3NC(=O)[C@H]4NC(=O)[C@H](NC(=O)[C@H](N=[N+]=[N-])c5ccc(O)c(c5)Oc5cc4cc(O)c5C)[C@H](O)c4ccc(cc4)Oc4cc3cc(c4O)Oc3ccc(cc3)[C@H]2O)c2ccc(O)c(c2)-c2c(O)cc(O)cc21` [listing 1 of 2 here], the MBC worked out at 4 µg/mL (≈ 3.33 µM) against Bacillus subtilis; 2 µg/mL (≈ 1.67 µM) against Staphylococcus aureus [7]; 2 µg/mL (≈ 1.67 µM) with Staphylococcus aureus [8]; 64 µg/mL (≈ 53.3 µM) in assay [9]; 8 µg/mL (≈ 6.67 µM) in assay [10]; 16 µg/mL (≈ 13.3 µM) against Enterococcus faecalis [11]. Moreover, the MBC in the assay on Enterococcus faecalis [12] is 128 µg/mL (≈ 107 µM). For the same molecule, the MIC with Bacillus subtilis came out at 1 µg/mL (≈ 0.833 µM); against Staphylococcus aureus [7] it was 1 µg/mL (≈ 0.833 µM); in the assay with Staphylococcus aureus [8] it was 2 µg/mL (≈ 1.67 µM); in assay [9], 32 µg/mL (≈ 26.7 µM); in assay [10] it was 4 µg/mL (≈ 3.33 µM); in the assay on Enterococcus faecalis [11], 8 µg/mL (≈ 6.67 µM). Moreover, the MIC in the assay with Enterococcus faecalis [12] is 64 µg/mL (≈ 53.3 µM); with Enterococcus faecalis [13], over 256 µg/mL.
Regarding `COC(=O)[C@H]1NC(=O)[C@H]2NC(=O)[C@H](NC(=O)[C@@H]3NC(=O)[C@H]4NC(=O)[C@H](NC(=O)[C@H](N=[N+]=[N-])c5ccc(O)c(c5)Oc5cc4cc(O)c5C)[C@H](O)c4ccc(cc4)Oc4cc3cc(c4O)Oc3ccc(cc3)[C@H]2O)c2ccc(O)c(c2)-c2c(O)cc(O)cc21` [listing 2 of 2 here], the half-maximal effective concentration (EC50) in the assay with Influenza A virus [1] is 9.5 µM; in the assay with Influenza A virus [3], at least 20 µM; in the assay with Influenza A virus [4], at least 9 µM; in the assay with Influenza B virus [5] it was over 100 µM; with Influenza B virus [6] it was over 100 µM.

By EC50 is commonly meant the concentration that produces a half-maximal response.
